# Values quoted from earlier work, collected in patent publication US20060105961A1 (Pharmacia Corporation, priority 2002, published 2006).
# Test system: tumor
# Conditions: mice after radiotherapy
smiles,measurement,value
COc1ccc2c(c1)c(CC(=O)O)c(C)n2C(=O)c1ccc(Cl)cc1 [indomethacin],tumor cure rate,increases the tumor cure rate
same,tumor growth delay,prolongs tumor growth delay
